PMC6526530 (Biological & pharmaceutical bulletin, 2009)

Columns and labels:
[1] = target: T1, P-glycoprotein (ABCB1/MDR1) (Homo sapiens, UniProt P08183); assay: transepithelial transport in L-MDR1 vs LLC-PK1 monolayers; assay type: cell-based
[2] = target: T1, P-glycoprotein (ABCB1/MDR1); assay: inhibition of transepithelial DRV transport in L-MDR1 monolayers; assay type: cell-based

T1 sequence (P08183 whole entry): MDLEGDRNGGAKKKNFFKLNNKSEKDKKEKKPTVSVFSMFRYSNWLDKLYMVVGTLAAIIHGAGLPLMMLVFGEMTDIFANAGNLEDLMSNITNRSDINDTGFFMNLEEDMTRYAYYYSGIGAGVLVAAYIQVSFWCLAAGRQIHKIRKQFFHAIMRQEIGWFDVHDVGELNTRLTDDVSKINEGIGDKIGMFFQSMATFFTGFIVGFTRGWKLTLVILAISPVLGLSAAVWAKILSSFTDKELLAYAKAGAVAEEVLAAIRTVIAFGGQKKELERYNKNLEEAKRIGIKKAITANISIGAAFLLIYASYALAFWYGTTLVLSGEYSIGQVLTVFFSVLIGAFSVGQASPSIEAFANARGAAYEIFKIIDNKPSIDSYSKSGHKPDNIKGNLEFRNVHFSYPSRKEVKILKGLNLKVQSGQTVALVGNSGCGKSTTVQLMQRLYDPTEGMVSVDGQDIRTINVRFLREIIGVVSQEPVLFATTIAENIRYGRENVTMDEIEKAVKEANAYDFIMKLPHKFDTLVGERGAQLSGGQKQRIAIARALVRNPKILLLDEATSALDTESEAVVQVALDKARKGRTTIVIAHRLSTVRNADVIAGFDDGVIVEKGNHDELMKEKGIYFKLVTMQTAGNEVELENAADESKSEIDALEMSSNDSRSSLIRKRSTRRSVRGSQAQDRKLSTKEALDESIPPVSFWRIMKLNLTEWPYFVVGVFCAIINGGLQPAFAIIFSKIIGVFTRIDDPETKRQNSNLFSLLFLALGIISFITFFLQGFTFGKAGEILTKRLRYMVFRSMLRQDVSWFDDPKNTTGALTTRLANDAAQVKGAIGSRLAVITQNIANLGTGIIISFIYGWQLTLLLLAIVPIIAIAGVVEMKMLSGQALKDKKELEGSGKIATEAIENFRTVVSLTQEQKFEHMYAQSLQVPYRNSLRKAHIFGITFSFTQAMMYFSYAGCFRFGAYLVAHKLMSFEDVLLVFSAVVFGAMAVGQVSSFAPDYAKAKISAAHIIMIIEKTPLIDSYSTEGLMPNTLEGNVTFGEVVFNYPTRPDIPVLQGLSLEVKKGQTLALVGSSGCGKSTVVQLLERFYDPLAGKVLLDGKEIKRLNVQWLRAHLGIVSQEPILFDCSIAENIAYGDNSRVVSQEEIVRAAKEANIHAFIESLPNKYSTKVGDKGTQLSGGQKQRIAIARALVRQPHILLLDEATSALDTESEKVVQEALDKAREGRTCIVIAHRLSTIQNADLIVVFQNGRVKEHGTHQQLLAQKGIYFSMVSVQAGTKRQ

Structure (SMILES) | IC50 [1] [µM] | inhibition of transepithelial DRV transport in L-MDR1 monolayers [2]
CC(C)CN(C[C@@H](O)[C@H](Cc1ccccc1)NC(=O)O[C@H]1CO[C@H]2OCC[C@H]21)S(=O)(=O)c1ccc(N)cc1 [DRV, Darunavir] | 121 | 
Cc1c(O)cccc1C(=O)N[C@@H](CSc1ccccc1)[C@H](O)CN1C[C@H]2CCCC[C@H]2C[C@H]1C(=O)NC(C)(C)C [NFV, Nelfinavir] |  | showed NFV to have a potent inhibitory effect on P-glycoprotein-mediated transport of DRV when compared to RTV and SQV
